Where a SMILES comes first, the peptide text is derived from it.
Key:
[1] = tested on: MDV; format: cell-based, Marek's disease virus (MDV) strain RB1B
[2] = Gel filtration (GF) analysis of oligomeric state; format: physicochemical; conditions: for MW of polymer (GF peak molecular mass): Superdex G75, 20 mM Tris-HCl pH 8.0, estimated against protein standards; for Oligomeric state: aqueous solution, Superdex G75, 20 mM Tris-HCl pH 8.0, GF peak mass versus MS monomer mass
Experimental: Figure 5 GF results and structural analyses of five peptides. (top) GF analysis of peptides. The purified peptides were loaded onto the Superdex G75 column in a buffer solution of 20 mM Tris-HCl, pH 8.0. The peak molecular mass was estimated by comparison with the protein standards running on the same column. The clear peak of gHH1 occurred at about 12.1 kDa. This molecular mass matches the approximate sum of four molecules, indicating the formation of the homotetrameric structure. The peak of gHH2 occurred at about 7.2 kDa, indicating the formation of the homodimeric structure. The peak of gHH3 occurred at about 3.8 kDa, indicating the monomeric state. The peak of gHH5 occurred at about 9.1 kDa, indicating the formation of the homotrimeric structure. The peak of gBH1 occurred at about 10.7 kDa, indicating the formation of the homotrimeric structure. (bottom) Sequences and calculated oligomeric states of gHH1, gHH2, gHH3, gHH5, and gBH1 in aqueous solution. TEXT PRINTED IN THE PICTURE: gHH1: MW of monomer: 3184 Da; MW of polymer: 12.1 kDa; Oligomeric state: 4 (tetramer) | gHH2: MW of monomer: 3623 Da; MW of polymer: 7.2 kDa; Oligomeric state: 2 (dimer) | gHH3: MW of monomer: 3795 Da; MW of polymer: 3.8 kDa; Oligomeric state: 1 (monomer) | gHH5: MW of monomer: 3002 Da; MW of polymer: 9.1 kDa; Oligomeric state: 3 (trimer) | gBH1: MW of monomer: 3303 Da; MW of polymer: 10.7 kDa; Oligomeric state: 3 (trimer)
The purified cleaved peptides were loaded onto the Superdex G75 column in a solution buffer of 20 mM Tris-HCl, pH 8.0. The peak molecular mass was estimated by comparison with protein standards running on the same column. The peak fractions were collected and analysed by 15% SDS-PAGE. The analytical column was calibrated using a series of individual runs of standard molecular mass proteins as markers including bovine serum albumin (68 kDa), egg white albumin (43 kDa), […] (13.7 kDa), aprotinin (6.5 kDa), antimicrobial peptides (5 kDa), and vitamin B12 (1.4 kDa).

[3] = tested on: MDV; parameters: species or system Marek's disease virus (MDV) strain RB1B; conditions: in vivo

SMILES | plaque formation [1] | MW of polymer (GF peak molecular mass) [2] [kDa] | Oligomeric state [2] | lesion formation on CAMs (words) [3] | inhibition of plaque formation [1] [%] | lesion formation on CAMs [3] | plaque formation (result in words) [1]
CC[C@H](C)[C@H](NC(=O)[C@H](C)NC(=O)[C@H](C)NC(=O)[C@H](CCC(=O)O)NC(=O)[C@H](C)NC(=O)[C@H](CCC(=O)O)NC(=O)[C@H](CCCNC(=N)N)NC(=O)[C@H](CCCCN)NC(=O)[C@@H](NC(=O)[C@H](CS)NC(=O)[C@H](CCC(N)=O)NC(=O)CNC(=O)[C@H](CC(C)C)NC(=O)[C@@H](NC(=O)[C@@H](NC(=O)[C@@H](N)CCCNC(=N)N)[C@@H](C)CC)[C@@H](C)CC)[C@@H](C)CC)C(=O)N[C@@H](CCC(=O)O)C(=O)N[C@@H](CCC(N)=O)C(=O)N[C@H](C(=O)N[C@@H](Cc1ccccc1)C(=O)N[C@@H](CCCNC(=N)N)C(=O)N[C@H](C(=O)N[C@@H](CCCCN)C(=O)N[C@@H](Cc1ccc(O)cc1)C(=O)N[C@@H](CC(N)=O)C(=O)N[C@@H](CC(=O)O)C(=O)N[C@@H](CO)C(=O)N[C@@H](Cc1c[nH]cn1)C(=O)O)[C@@H](C)O)[C@@H](C)CC [gBH1] | ~12% | 10.7 | 3 | significantly able to reduce lesion formation | – | – | –
CC[C@H](C)[C@H](NC(=O)[C@H](CCC(=O)O)NC(=O)[C@H](CCSC)NC(=O)[C@H](CC(=O)O)NC(=O)[C@H](CO)NC(=O)[C@H](C)NC(=O)[C@H](CC(N)=O)NC(=O)[C@H](CCSC)NC(=O)[C@@H](N)Cc1c[nH]cn1)C(=O)N[C@@H](CCCCN)C(=O)N[C@@H](CO)C(=O)N[C@@H](Cc1ccc(O)cc1)C(=O)N[C@H](C(=O)N[C@@H](CC(N)=O)C(=O)N[C@@H](CCSC)C(=O)N[C@H](C(=O)N[C@@H](CCC(=O)O)C(=O)N[C@@H](CO)C(=O)N[C@H](C(=O)N[C@@H](CCC(=O)O)C(=O)N[C@@H](CCC(=O)O)C(=O)N[C@@H](CO)C(=O)N[C@@H](CO)C(=O)N[C@@H](CC(N)=O)C(=O)N[C@@H](Cc1ccc(O)cc1)C(=O)N[C@@H](CC(=O)O)C(=O)N[C@@H](Cc1ccccc1)C(=O)O)C(C)C)[C@@H](C)CC)[C@@H](C)CC [gHH1] (H-HMNASDMEIKSYINMIESVEESSNYDF-OH; N-terminus and C-terminus assumed) | completely inhibited | 12.1 | 4 | significantly able to reduce lesion formation | 100 | completely inhibited | –
CC[C@H](C)[C@H](NC(=O)[C@H](Cc1ccc(O)cc1)NC(=O)CNC(=O)[C@H](CO)NC(=O)[C@H](CCC(N)=O)NC(=O)[C@H](Cc1ccccc1)NC(=O)[C@H](C)NC(=O)[C@H](CC(N)=O)NC(=O)[C@H](CCCNC(=N)N)NC(=O)[C@@H](NC(=O)[C@H](CO)NC(=O)[C@H](C)NC(=O)[C@@H](NC(=O)[C@H](CC(C)C)NC(=O)[C@H](CO)NC(=O)[C@H](CCSC)NC(=O)[C@H](Cc1ccccc1)NC(=O)[C@H](CC(C)C)NC(=O)[C@H](CCCNC(=N)N)NC(=O)[C@@H](NC(=O)[C@@H](NC(=O)[C@@H](NC(=O)[C@@H](N)C(C)C)C(C)C)[C@@H](C)O)[C@@H](C)O)C(C)C)C(C)C)C(=O)N[C@@H](CO)C(=O)N[C@@H](Cc1ccccc1)C(=O)N[C@@H](CC(=O)O)C(=O)N[C@@H](CCC(=O)O)C(=O)N[C@H](C(=O)N[C@H](C(=O)N[C@@H](CCCCN)C(=O)N[C@H](C(=O)N[C@@H](CCC(=O)O)C(=O)O)[C@@H](C)O)[C@@H](C)CC)[C@@H](C)CC [gHH2] (H-VVTTRLFMSLVASVRNAFQSGYISFDEIIKTE-OH; N-terminus and C-terminus assumed) | – | 7.2 | 2 | significantly able to reduce lesion formation | – | – | completely inhibited
CC[C@H](C)[C@H](NC(=O)[C@H](CO)NC(=O)[C@H](CC(C)C)NC(=O)[C@H](CO)NC(=O)[C@H](C)NC(=O)[C@@H](NC(=O)[C@H](CC(N)=O)NC(=O)[C@H](CCCCN)NC(=O)[C@H](CO)NC(=O)[C@H](C)NC(=O)[C@H](CC(N)=O)NC(=O)[C@@H](NC(=O)[C@@H](NC(=O)[C@@H](NC(=O)[C@H](CCCCN)NC(=O)[C@H](CCCNC(=N)N)NC(=O)[C@@H](NC(=O)[C@H](CC(C)C)NC(=O)[C@H](CO)NC(=O)[C@H](CCCCN)NC(=O)[C@@H](NC(=O)[C@@H](NC(=O)[C@H](CC(=O)O)NC(=O)[C@H](C)NC(=O)[C@@H](N)CC(N)=O)[C@@H](C)CC)[C@@H](C)CC)[C@@H](C)CC)[C@@H](C)O)[C@@H](C)CC)[C@@H](C)CC)[C@@H](C)O)C(=O)N[C@@H](CC(C)C)C(=O)N[C@@H](CCC(N)=O)C(=O)N[C@@H](Cc1c[nH]cn1)C(=O)N[C@@H](CC(C)C)C(=O)N[C@@H](Cc1ccc(O)cc1)C(=O)N[C@H](C(=O)N[C@@H](CC(C)C)C(=O)N[C@@H](CCCNC(=N)N)C(=O)N[C@@H](CO)C(=O)O)C(C)C [gHH3] (H-NADIIKSLIRKTIINASKNTASLSILQHLYVLRS-OH; N-terminus and C-terminus assumed) | ~20% | 3.8 | 1 | significantly able to reduce lesion formation | – | – | –
CC[C@H](C)[C@H](NC(=O)[C@H](CCCCN)NC(=O)[C@@H](NC(=O)[C@H](Cc1ccc(O)cc1)NC(=O)[C@H](CCSC)NC(=O)[C@H](CCC(=O)O)NC(=O)[C@H](CCC(N)=O)NC(=O)[C@@H](NC(=O)[C@@H](NC(=O)[C@H](CC(C)C)NC(=O)[C@H](CCC(=O)O)NC(=O)[C@@H](NC(=O)[C@H](C)NC(=O)[C@@H](NC(=O)[C@@H](NC(=O)[C@H](Cc1c[nH]cn1)NC(=O)[C@H](CCC(=O)O)NC(=O)[C@H](CCC(=O)O)NC(=O)[C@@H](NC(=O)[C@@H](N)CS)[C@@H](C)O)[C@@H](C)CC)C(C)C)[C@@H](C)O)C(C)C)[C@@H](C)CC)[C@@H](C)CC)C(=O)N[C@@H](CC(N)=O)C(=O)N[C@H](C(=O)N[C@@H](CCCCN)C(=O)N[C@@H](CC(N)=O)C(=O)N[C@@H](CO)C(=O)N1CCC[C@H]1C(=O)O)C(C)C [gHH5] (H-CTEEHIVATELVIQEMYIKINVKNSP-OH; N-terminus and C-terminus assumed) | ~13% | 9.1 | 3 | significantly able to reduce lesion formation | – | – | –
